BindingDB's records for doi:10.7270/Q2T72HDT (Dupont Pharmaceuticals, 1995)

How the values were obtained:
[1] = target: T1, Sterol O-acyltransferase 1 (Rattus norvegicus, UniProt O70536); assay: ChEBML_28360
T1 sequence (O70536 whole entry): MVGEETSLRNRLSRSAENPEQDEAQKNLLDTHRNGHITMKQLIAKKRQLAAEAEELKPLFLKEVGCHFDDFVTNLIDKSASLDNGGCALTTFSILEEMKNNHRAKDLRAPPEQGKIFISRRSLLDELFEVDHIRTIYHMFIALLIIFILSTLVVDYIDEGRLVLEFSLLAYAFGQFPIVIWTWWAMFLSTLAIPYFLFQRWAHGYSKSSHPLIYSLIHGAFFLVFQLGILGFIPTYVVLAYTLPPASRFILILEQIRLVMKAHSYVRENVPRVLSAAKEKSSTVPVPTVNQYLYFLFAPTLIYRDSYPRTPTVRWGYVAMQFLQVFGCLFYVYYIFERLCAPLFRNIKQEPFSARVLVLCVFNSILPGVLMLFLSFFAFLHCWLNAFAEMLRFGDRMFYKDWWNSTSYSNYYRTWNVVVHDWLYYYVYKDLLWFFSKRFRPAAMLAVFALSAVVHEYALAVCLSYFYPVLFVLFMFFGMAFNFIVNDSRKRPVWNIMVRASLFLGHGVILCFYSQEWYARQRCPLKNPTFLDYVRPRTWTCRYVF
From the text: In vitro inhibition of Acyl coenzyme A:cholesterol acyltransferase (ACAT) in rat hepatic microsomes

[2] = target: T2, Sterol O-acyltransferase 1 (Mus musculus, UniProt Q61263); assay: ChEBML_28026
T2 sequence (Q61263 whole entry): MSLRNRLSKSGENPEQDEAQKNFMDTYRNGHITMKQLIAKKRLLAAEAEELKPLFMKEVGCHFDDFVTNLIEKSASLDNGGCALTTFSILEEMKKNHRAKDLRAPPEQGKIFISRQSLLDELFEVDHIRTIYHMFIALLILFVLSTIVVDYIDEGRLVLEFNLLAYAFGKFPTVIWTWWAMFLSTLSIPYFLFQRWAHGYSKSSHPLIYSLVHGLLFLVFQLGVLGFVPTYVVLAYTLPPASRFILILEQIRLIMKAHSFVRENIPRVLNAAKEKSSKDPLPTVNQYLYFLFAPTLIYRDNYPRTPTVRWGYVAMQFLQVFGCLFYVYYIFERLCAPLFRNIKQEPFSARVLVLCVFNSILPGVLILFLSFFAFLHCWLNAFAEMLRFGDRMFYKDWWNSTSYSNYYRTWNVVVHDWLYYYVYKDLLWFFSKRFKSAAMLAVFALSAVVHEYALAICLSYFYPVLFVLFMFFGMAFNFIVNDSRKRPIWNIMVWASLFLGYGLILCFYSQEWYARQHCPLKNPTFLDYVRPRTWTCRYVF
From the text: Inhibition of Acyl coenzyme A:cholesterol acyltransferase (ACAT) in J774 Macrophage cell culture

| IC50 [1] [nM] | IC50 [2] [nM] | SMILES |
| --- | --- | --- |
| 90 | 100 | COc1ccc(-c2nc(SCCCCCN(CCCCCSc3nc(-c4ccccc4)c(-c4ccccc4)[nH]3)C(=O)NC(C)C)[nH]c2-c2ccc(OC)cc2)cc1 |
| 90 | 10 | COc1ccc(-c2nc(SCCCCCN(CCCCCSc3nc(-c4ccc(OC)cc4)c(-c4ccc(OC)cc4)[nH]3)C(=O)NC(C)C)[nH]c2-c2ccc(OC)cc2)cc1 |
| 3 | 450 | CN(C)c1ccc(-c2nc(SCCCCCN(CCCCCSc3nc(-c4ccccc4)c(-c4ccccc4)[nH]3)C(=O)Nc3ccc(F)cc3F)[nH]c2-c2ccc(N(C)C)cc2)cc1 |
| 134 | 370 | CN(C)c1ccc(-c2nc(SCCOCCSc3nc(-c4ccc(N(C)C)cc4)c(-c4ccc(N(C)C)cc4)[nH]3)[nH]c2-c2ccc(N(C)C)cc2)cc1 |
| – | 7960 | c1ccc(-c2nc(SCCCSCCCSc3nc(-c4ccccc4)c(-c4ccccc4)[nH]3)[nH]c2-c2ccccc2)cc1 |
| 80 | 2440 | O=C(Nc1ccc(F)cc1F)N(CCCCCSc1nc(-c2ccccc2)c(-c2ccccc2)[nH]1)CCc1ccccn1 |
| – | 3870 | COc1ccc(-c2nc(SCCOCCSc3nc(-c4ccccc4)c(-c4ccccc4)[nH]3)[nH]c2-c2ccc(OC)cc2)cc1 |
| 26 | 6550 | c1ccc(-c2nc(SCCOCCSc3nc(-c4ccccc4)c(-c4ccccc4)[nH]3)[nH]c2-c2ccccc2)cc1 |
| 190 | 3050 | CC(C)NC(=O)N(CCCCCSc1nc(-c2ccccc2)c(-c2ccccc2)[nH]1)CCc1ccccn1 |
| 250 | 7270 | Cc1nc2ccccc2n1CCCSCCCSc1nc(-c2ccccc2)c(-c2ccccc2)[nH]1 |
| – | 3920 | c1ccc(-c2nc(SCCCCCOCCc3ccccn3)[nH]c2-c2ccccc2)cc1 |
| – | 5500 | COc1ccc(-c2nc(SCCCCCN(CCc3nn[nH]n3)C(=O)NC(C)C)[nH]c2-c2ccc(OC)cc2)cc1 |
| 30 | 60 | CC(C)NC(=O)N(CCCCCSc1nc(-c2ccccc2)c(-c2ccccc2)[nH]1)CCCCCSc1nc(-c2ccc(N(C)C)cc2)c(-c2ccc(N(C)C)cc2)[nH]1 |
| – | 5500 | COc1ccc(-c2nc(SCCCCCN(CCCn3ccnc3)C(=O)NC(C)C)[nH]c2-c2ccc(OC)cc2)cc1 |
| 310 | 3930 | c1ccc(-c2nc(SCCCCCSCc3ccccn3)[nH]c2-c2ccccc2)cc1 |
| 2040 | 2990 | CN(C)c1ccc(-c2nc(SCCOCCSc3[nH]cnc4ncnc3-4)[nH]c2-c2ccc(N(C)C)cc2)cc1 |
| 6230 | 60 | COc1ccc(-c2nc(SCCCCCN(Cc3ccccn3)C(=O)NC(C)C)[nH]c2-c2ccc(OC)cc2)cc1 |
| 660 | 790 | O=C(Nc1ccc(F)cc1F)N(CCCCCSc1nc(-c2ccccc2)c(-c2ccccc2)[nH]1)c1ccccn1 |
| – | 3430 | COc1ccc(-c2nc(SCCOCCn3c(C)nc4ccccc43)[nH]c2-c2ccc(OC)cc2)cc1 |
| – | 190 | COc1ccc(-c2nc(SCCCCCN(Cc3ccccn3)C(=O)Nc3ccc(F)cc3F)[nH]c2-c2ccc(OC)cc2)cc1 |
| 100 | 940 | CC(C)NC(=O)N(CCCCCSc1nc(-c2ccccc2)c(-c2ccccc2)[nH]1)c1ccccn1 |
| 260 | 90 | COc1ccc(-c2nc(SCCCCCN(CCc3ccccn3)C(=O)NC(C)C)[nH]c2-c2ccc(OC)cc2)cc1 |
| 300 | 690 | COc1ccc(-c2nc(SCCCCCN(CCc3ccccn3)C(=O)Nc3ccc(F)cc3F)[nH]c2-c2ccc(OC)cc2)cc1 |
